What was measured:
[1] = Hygroscopicity / solid-state stability to humidity; details: for stability with respect to hygroscopicity and loss of water / changes when exposed to very high humidity: anhydrates; for stability over the free base and over the hydrochloride salt, particularly with respect to hygroscopicity: compared with free base and hydrochloride salt
dopamine D2 receptor = dopamine D2 receptor (Homo sapiens, UniProt P14416); experiment: Affinity for dopamine D2 receptor; format: binding
dopamine D3 receptor = dopamine D3 receptor (Homo sapiens, UniProt P35462); experiment: Affinity for dopamine D3 receptor; format: binding; details: for affinity for dopamine D3 relative to D2 receptors: D3 versus D2
[2] = target: T1, serotonin 5-HT2C receptor (Homo sapiens, UniProt P28335); experiment: Antagonist affinity for serotonin 5-HT2C receptor; format: binding
T1 sequence (P28335 33-458): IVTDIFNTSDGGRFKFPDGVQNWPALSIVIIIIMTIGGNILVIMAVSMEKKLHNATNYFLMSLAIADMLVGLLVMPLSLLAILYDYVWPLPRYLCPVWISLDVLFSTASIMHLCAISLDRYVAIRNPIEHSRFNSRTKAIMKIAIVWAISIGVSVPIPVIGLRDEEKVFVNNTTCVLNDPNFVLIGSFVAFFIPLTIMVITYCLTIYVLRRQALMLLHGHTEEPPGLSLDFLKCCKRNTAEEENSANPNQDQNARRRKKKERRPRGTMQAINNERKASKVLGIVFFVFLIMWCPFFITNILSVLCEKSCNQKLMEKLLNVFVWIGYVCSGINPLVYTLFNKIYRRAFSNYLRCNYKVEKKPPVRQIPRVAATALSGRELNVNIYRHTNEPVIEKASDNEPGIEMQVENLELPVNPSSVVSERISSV

Chain of dopamine D3 receptor (P35462 whole entry, species assumed): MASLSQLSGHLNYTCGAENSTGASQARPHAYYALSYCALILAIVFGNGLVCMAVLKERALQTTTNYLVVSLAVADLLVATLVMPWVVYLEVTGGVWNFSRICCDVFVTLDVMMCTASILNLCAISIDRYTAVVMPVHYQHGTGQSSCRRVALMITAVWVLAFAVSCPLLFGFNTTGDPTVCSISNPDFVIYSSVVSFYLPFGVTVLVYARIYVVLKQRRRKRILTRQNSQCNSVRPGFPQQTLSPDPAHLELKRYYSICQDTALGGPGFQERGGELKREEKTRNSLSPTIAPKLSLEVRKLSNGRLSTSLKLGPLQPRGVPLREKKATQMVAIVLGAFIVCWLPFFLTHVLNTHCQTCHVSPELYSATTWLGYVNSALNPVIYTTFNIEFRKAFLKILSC
Chain of dopamine D2 receptor (P14416 whole entry): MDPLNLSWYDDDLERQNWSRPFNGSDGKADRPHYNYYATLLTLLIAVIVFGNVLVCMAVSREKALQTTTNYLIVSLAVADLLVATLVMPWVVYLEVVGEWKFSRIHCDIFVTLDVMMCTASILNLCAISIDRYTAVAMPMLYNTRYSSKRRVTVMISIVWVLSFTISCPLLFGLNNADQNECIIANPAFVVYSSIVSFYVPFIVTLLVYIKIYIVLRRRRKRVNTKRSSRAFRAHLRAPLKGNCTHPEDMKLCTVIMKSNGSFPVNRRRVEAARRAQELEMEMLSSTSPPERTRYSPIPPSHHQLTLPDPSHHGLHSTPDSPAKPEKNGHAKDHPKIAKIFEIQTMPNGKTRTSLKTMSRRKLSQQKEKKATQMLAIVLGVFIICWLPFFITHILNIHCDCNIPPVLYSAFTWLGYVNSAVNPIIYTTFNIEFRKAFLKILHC

COc1cc2c(cc1S(=O)(=O)c1ccc(OCc3ccc(Cl)cc3)cc1)CCN(C)CC2.O=C(O)/C=C\C(=O)O [maleate, 7-[4-(4-chlorobenzyloxy)benzenesulfonyl]-8-methoxy-3-methyl-2,3,4,5-tetrahydro-1H-3-benzazepinium maleate]
stability with respect to hygroscopicity and loss of water [1]: particular stability
changes when exposed to very high humidity [1]: reversible changes
stability over the free base and over the hydrochloride salt, particularly with respect to hygroscopicity [1]: improved stability
affinity for dopamine D2 receptors (dopamine D2 receptor): exhibit affinity
affinity for dopamine D3 receptors (dopamine D3 receptor): exhibit affinity
affinity for dopamine D3 relative to D2 receptors (dopamine D3 receptor): greater affinity for dopamine D3 than for D2 receptors
antagonist affinity for the serotonin 5-HT2C receptor [2]: antagonist affinity

COc1cc2c(cc1S(=O)(=O)c1ccc(OCc3ccc(Cl)cc3)cc1)CCN(C)CC2.Cc1ccc(S(=O)(=O)O)cc1 [tosylate, 7-[4-(4-Chlorobenzyloxy)benzenesulfonyl]-8-methoxy-3-methyl-2,3,4,5-tetrahydro-1H-3-benzazepinium p-toluenesulfonate]
stability with respect to hygroscopicity and loss of water [1]: particular stability
changes when exposed to very high humidity [1]: reversible changes
stability over the free base and over the hydrochloride salt, particularly with respect to hygroscopicity [1]: improved stability
affinity for dopamine D2 receptors (dopamine D2 receptor): exhibit affinity
affinity for dopamine D3 receptors (dopamine D3 receptor): exhibit affinity
affinity for dopamine D3 relative to D2 receptors (dopamine D3 receptor): greater affinity for dopamine D3 than for D2 receptors
antagonist affinity for the serotonin 5-HT2C receptor [2]: antagonist affinity

COc1cc2c(cc1S(=O)(=O)c1ccc(OCc3ccc(Cl)cc3)cc1)CCN(C)CC2 [free base, 7-[4-(4-chlorobenzyloxy)benzenesulfonyl]-8-methoxy-3-methyl-2,3,4,5-tetrahydro-1H-3-benzazepine]
hygroscopicity ([1]; multiple forms, all of those tested): hygroscopic

Source: patent publication US20070275948A1, “7-[4-(4-Chlorobenzyloxy)Benzenesulfonyl]-8-Methoxy-3-Methyl-2,3,4,5-Tetrahydro-1h-3-Benzazepinium Maleate Or Tosylate As antipyschotics” (priority 2003, published 2007)
